# Earlier results as cited in EP4789665A1, “TREATMENT OF HIS HYPORESPONDERS” (NewAmsterdam Pharma B.V., priority 2021, dated 2023).
# Key:
# CETP [1] = molecular target: T1, CETP (Homo sapiens, UniProt P11597); details: in combination with atorvastatin; cited from earlier work
# T1 construct: endogenous in cells; host or cells: trial patients (in vivo, circulating plasma CETP)
# T1 sequence (P11597 18-493): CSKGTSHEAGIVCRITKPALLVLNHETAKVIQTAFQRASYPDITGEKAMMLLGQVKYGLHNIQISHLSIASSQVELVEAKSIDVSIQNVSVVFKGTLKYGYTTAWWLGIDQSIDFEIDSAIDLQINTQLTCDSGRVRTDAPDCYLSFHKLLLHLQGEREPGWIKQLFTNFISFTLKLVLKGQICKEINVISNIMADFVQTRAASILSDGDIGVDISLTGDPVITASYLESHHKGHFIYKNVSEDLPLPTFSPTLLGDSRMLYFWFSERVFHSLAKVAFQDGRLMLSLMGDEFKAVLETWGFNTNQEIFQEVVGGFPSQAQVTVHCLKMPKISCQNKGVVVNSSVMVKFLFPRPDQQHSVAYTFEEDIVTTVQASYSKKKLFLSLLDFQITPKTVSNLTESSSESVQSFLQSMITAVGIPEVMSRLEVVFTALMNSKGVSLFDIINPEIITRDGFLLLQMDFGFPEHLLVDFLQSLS
# CETP [2] = molecular target: T1, CETP; details: in vivo; cited from earlier work
# HMG CoA reductase = molecular target: T2, HMG CoA reductase (Homo sapiens, UniProt P04035); details: rosuvastatin 20 mg; JUPITER secondary analysis; cited from earlier work
# T2 construct: host or cells: patients of the JUPITER study (in vivo)
# T2 sequence (P04035 1-888): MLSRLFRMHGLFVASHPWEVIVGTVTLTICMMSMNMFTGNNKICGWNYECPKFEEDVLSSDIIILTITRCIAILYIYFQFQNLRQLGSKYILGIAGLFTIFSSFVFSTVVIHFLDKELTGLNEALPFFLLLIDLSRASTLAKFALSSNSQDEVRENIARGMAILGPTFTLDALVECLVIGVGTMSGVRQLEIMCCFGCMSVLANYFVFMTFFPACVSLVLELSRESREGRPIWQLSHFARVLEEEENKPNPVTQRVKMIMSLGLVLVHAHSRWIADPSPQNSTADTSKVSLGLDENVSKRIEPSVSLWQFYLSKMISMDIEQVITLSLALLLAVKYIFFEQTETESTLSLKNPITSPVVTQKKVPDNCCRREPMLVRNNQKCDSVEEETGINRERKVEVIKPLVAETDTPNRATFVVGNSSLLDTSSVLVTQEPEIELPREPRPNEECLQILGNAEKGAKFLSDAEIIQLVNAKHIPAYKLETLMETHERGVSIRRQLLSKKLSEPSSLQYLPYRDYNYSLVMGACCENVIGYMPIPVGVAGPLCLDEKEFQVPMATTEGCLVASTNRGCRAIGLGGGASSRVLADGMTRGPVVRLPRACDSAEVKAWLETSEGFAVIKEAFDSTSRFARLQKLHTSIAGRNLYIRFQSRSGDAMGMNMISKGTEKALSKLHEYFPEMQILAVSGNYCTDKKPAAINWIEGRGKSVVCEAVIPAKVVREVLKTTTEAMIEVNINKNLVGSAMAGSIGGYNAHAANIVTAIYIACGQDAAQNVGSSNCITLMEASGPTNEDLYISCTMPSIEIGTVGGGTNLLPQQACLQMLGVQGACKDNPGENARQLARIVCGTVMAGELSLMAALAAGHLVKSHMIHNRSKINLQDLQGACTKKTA
smiles,measurement,setting,value
CCOC(=O)N1c2ccc(C(F)(F)F)cc2[C@@H](N(Cc2cc(C(F)(F)F)cc(C(F)(F)F)c2)C(=O)OC)C[C@H]1CC [torcetrapib],cardiovascular events and death,CETP [1],unexpected increase in cardiovascular events and death
CCC(CC)CC1(C(=O)Nc2ccccc2SC(=O)C(C)C)CCCCC1 [dalcetrapib],effects on LDL-C concentrations,CETP [2],minimal effects on LDL-C concentrations
same,increased HDL-C by,CETP [2],30-40%
CC(C)c1nc(N(C)S(C)(=O)=O)nc(-c2ccc(F)cc2)c1/C=C/[C@@H](O)C[C@@H](O)CC(=O)O [rosuvastatin],median LDL-C lowering response,HMG CoA reductase,50%
